Assay results as given in ChEMBL document CHEMBL5154688, “Design, Synthesis, and Characterization of I-BET567, a Pan-Bromodomain and Extra Terminal (BET) Bromodomain Oral Candidate” (J Med Chem, 2022).
Values after ≈ are worked out from the molar mass of the structure shown.

Assays:
[1] = target: T1, Bromodomain-containing protein 4 (Homo sapiens, UniProt O60885); assay: Inhibition of BRD4 BD2 (unknown origin) incubated for 30 mins in presence of fluorescent ligand by TR-FRET method
[2] = target: T1, Bromodomain-containing protein 4; assay: Inhibition of BRD4 BD1 (unknown origin) incubated for 30 mins in presence of fluorescent ligand by TR-FRET method
[3] = Solubility of the compound in saline by CLND method; format: physicochemical
[4] = Artificial membrane permeability of the compound; format: ADME; conditions: PAMPA; read-out: permeability
[5] = Solubility of the compound at pH 6.5 in fast state simulated intestinal fluid incubated for 16 hrs by HPLC analysis; format: physicochemical; conditions: fasted state simulated intestinal fluid (FaSSIF)
Cytochrome P450 3A4 = Cytochrome P450 3A4 (Homo sapiens, UniProt P08684); assay: Inhibition of CYP3A4 (unknown origin); format: ADME
Cytochrome P450 3A4, sequence (P08684 whole entry): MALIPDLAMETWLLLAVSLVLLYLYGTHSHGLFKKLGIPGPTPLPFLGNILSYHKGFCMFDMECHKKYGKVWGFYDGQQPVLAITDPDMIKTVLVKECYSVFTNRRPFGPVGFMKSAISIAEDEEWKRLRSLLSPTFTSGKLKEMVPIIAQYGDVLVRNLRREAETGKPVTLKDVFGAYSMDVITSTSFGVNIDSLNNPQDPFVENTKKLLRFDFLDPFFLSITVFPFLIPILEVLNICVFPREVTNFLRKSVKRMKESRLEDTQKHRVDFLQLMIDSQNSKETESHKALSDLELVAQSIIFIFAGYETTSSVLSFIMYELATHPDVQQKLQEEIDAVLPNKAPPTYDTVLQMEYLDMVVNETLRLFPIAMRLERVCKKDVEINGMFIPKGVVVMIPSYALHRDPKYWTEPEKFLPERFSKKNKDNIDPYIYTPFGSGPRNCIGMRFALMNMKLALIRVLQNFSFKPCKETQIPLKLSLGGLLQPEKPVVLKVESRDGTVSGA

C-C motif chemokine 2 = C-C motif chemokine 2 (Homo sapiens, UniProt P13500); assay: Inhibition of MCP-1 in LPS-stimulated human whole blood incubate for 24 hrs by immuno assay; format: tissue-based
C-C motif chemokine 2, sequence (P13500 whole entry): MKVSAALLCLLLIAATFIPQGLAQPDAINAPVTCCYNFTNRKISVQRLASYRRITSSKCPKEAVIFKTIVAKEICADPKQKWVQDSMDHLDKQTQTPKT

[6] = target: Voltage-gated inwardly rectifying potassium channel KCNH2 (Homo sapiens, UniProt Q12809); assay: Inhibition of hERG; format: toxicity
Voltage-gated inwardly rectifying potassium channel KCNH2, sequence (Q12809 whole entry): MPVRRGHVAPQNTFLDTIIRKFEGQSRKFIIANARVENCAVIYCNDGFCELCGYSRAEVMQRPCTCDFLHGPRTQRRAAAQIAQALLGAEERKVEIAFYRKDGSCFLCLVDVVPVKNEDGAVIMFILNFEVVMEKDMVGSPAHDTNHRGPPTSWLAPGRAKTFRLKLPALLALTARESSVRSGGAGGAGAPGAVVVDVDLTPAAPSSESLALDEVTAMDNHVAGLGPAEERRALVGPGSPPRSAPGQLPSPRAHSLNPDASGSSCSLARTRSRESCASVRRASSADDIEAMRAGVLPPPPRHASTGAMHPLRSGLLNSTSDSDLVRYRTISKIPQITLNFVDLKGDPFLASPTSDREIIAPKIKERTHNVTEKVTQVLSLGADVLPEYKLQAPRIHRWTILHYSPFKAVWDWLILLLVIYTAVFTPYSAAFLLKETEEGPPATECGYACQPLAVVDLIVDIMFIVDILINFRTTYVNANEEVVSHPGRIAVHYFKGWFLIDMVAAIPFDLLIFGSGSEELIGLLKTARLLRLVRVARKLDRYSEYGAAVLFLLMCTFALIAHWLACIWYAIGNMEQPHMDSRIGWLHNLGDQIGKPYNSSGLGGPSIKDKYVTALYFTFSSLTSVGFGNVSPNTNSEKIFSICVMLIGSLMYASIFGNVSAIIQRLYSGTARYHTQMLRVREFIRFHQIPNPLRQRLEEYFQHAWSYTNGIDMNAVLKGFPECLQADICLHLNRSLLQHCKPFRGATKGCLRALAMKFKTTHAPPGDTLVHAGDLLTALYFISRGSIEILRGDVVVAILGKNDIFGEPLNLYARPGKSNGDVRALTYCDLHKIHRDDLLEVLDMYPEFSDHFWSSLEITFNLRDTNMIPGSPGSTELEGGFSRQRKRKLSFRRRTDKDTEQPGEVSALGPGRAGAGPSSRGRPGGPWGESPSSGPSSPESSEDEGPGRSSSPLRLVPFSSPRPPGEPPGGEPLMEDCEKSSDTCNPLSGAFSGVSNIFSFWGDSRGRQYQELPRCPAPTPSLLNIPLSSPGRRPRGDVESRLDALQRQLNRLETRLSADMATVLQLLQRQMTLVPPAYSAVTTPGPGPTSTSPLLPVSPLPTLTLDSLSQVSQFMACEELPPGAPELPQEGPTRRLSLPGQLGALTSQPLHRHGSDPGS

[7] = Intrinsic clearance in rat hepatocytes after 60 mins by LC-MS/MS analysis; format: ADME, cell-based, Hepatocyte; conditions: 1 h
[8] = Intrinsic clearance in human hepatocytes measured after 120 mins by LC-MS/MS analysis; format: ADME, cell-based, Hepatocyte; conditions: 2 h
[9] = Intrinsic clearance in dog hepatocytes incubated upto 45 mins by LC-MS/MS analysis; format: ADME, cell-based, Canis lupus familiaris, Hepatocyte; conditions: 0.75 h

| SMILES | IC50 [1] [nM] | IC50 [2] [nM] | solubility kinetic [3] [µg/mL] | Papp [4] [×10⁻⁶ cm/s] | solubility at 16 h [5] [µg/mL] | IC50 (Cytochrome P450 3A4) [nM] | IC50 (C-C motif chemokine 2) [nM] | IC50 [6] [nM] | CLH [7] [mL/min/g] | CLH [8] [mL/min/g] | CLH [9] [mL/min/g] |
| --- | --- | --- | --- | --- | --- | --- | --- | --- | --- | --- | --- |
| CC(=O)N1c2ccc(C(N)=O)cc2[C@H](Nc2ccc(C)cn2)C[C@@H]1C | 158 | 794 | ≥ 143 | 8.2 |  |  |  |  |  |  |  |
| CC(=O)N1c2ccc(C#N)cc2[C@H](Nc2cnc(C#N)cn2)C[C@@H]1C | 501 | 501 |  | 19 | 60 (≈ 181 µM) |  |  |  |  |  |  |
| CC(=O)N1c2ccccc2[C@H](Nc2cnc(C)cn2)C[C@@H]1C | 501 | 1000 |  | 54 | 270 (≈ 911 µM) |  |  |  |  |  |  |
| CC(=O)N1c2ccc(F)cc2[C@H](Nc2ccc(C#N)cn2)C[C@@H]1C | 316 | 794 |  | 51 | 558 (≈ 1720 µM) |  |  |  |  |  |  |
| CCNC(=O)c1ccc2c(c1)[C@H](Nc1cnc(C#N)cn1)C[C@H](C)N2C(C)=O | 1000 | 501 | ≥ 73 | 0.3 |  |  |  |  |  |  |  |
| CC(=O)N1c2ccc(C(N)=O)cc2[C@H](Nc2ccc(Cl)cn2)C[C@@H]1C | 79.4 | 251 |  | 15 | 884 (≈ 2460 µM) | > 39800 | 398 | > 50100 |  |  |  |
| CC(=O)N1c2ccc(C#N)cc2[C@H](Nc2ccc(C#N)cn2)C[C@@H]1C | 158 | 501 |  | 31 | 279 (≈ 842 µM) |  |  |  |  |  |  |
| CCNC(=O)c1ccc2c(c1)[C@H](Nc1ncc(Cl)cn1)C[C@H](C)N2C(C)=O | 79.4 | 100 |  | < 18 | 82 (≈ 211 µM) |  |  |  |  |  |  |
| CCNC(=O)c1ccc2c(c1)[C@H](Nc1ccc(C#N)cn1)C[C@H](C)N2C(C)=O | 100 | 200 |  | 4.6 | > 1000 | > 39800 | 251 | > 50100 | 4.3 | < 0.87 | < 1.26 |
| CC(=O)N1c2ccc(C(N)=O)cc2[C@H](Nc2cccc(Cl)c2)C[C@@H]1C | 20 | 200 |  | 40 | 33 (≈ 92.2 µM) |  |  |  |  |  |  |
| CC(=O)N1c2ccc(F)cc2[C@H](Nc2cnc(C)cn2)C[C@@H]1C | 631 | 1260 |  | 52 | > 1000 |  |  |  |  |  |  |
| CCNC(=O)c1ccc2c(c1)[C@H](Nc1ccc(Cl)cn1)C[C@H](C)N2C(C)=O | 79.4 | 316 |  | 35 | 90 (≈ 233 µM) |  |  |  |  |  |  |
| CCNC(=O)c1ccc2c(c1)[C@H](Nc1ccc(F)cn1)C[C@H](C)N2C(C)=O | 158 | 794 | ≥ 126 | 23 |  |  |  |  |  |  |  |
| CC(=O)N1c2ccccc2[C@H](Nc2ccc(C#N)cn2)C[C@@H]1C | 316 | 1000 |  | 48 | 533 (≈ 1740 µM) |  |  |  |  |  |  |
| CC(=O)N1c2ccccc2[C@H](Nc2cnc(C#N)cn2)C[C@@H]1C | 1260 | 1260 |  | 32 | 955 (≈ 3110 µM) |  |  |  |  |  |  |
| CC(=O)N1c2ccc(F)cc2[C@H](Nc2cnc(C#N)cn2)C[C@@H]1C | 1000 | 1260 | 99 (≈ 304 µM) | 30 |  |  |  |  |  |  |  |
| CCNC(=O)c1ccc2c(c1)[C@H](Nc1ccc(C)cn1)C[C@H](C)N2C(C)=O | 158 | 794 |  | 25 | 44 (≈ 120 µM) |  |  |  |  |  |  |
